Assay results from ChEMBL document CHEMBL4334516, “Kinase Chemodiversity from the Arctic: The Breitfussins” (J Med Chem, 2019).

What was measured:
[1] = system: MCF7; test: Cytotoxicity in human MCF7 cells assessed as reduction in cell viability incubated for 72 hrs by MTS assay; type: functional, cell-based; details: MCF7, 72 h
[2] = molecular target: T1, Serine/threonine-protein kinase 17A (Homo sapiens, UniProt Q9UEE5); test: Inhibition of DRAK1 (unknown origin) expressed in HEK293 cells by NanoLuc-luciferase reporter based intracellular ATP competitiveness assay; type: cell-based
T1 sequence (Q9UEE5 whole entry): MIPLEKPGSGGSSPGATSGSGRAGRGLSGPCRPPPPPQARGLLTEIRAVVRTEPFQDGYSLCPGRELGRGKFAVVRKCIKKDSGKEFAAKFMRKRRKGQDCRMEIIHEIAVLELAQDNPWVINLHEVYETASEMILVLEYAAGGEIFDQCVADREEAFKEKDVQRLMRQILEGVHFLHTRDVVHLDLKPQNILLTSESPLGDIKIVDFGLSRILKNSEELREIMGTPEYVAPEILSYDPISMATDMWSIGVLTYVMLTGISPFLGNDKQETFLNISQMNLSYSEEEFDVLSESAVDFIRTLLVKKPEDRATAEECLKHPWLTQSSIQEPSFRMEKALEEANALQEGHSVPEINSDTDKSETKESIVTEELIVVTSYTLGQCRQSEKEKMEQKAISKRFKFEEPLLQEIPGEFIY

[3] = molecular target: T2, Serine/threonine-protein kinase 17B (Homo sapiens, UniProt O94768); test: Inhibition of Alexa Fluor 647-labeled ATP competitive kinase tracer binding to GST-tagged DRAK2 (unknown origin) by FRET based cell free ATP-competitive tracer displacement assay
T2 sequence (O94768 whole entry): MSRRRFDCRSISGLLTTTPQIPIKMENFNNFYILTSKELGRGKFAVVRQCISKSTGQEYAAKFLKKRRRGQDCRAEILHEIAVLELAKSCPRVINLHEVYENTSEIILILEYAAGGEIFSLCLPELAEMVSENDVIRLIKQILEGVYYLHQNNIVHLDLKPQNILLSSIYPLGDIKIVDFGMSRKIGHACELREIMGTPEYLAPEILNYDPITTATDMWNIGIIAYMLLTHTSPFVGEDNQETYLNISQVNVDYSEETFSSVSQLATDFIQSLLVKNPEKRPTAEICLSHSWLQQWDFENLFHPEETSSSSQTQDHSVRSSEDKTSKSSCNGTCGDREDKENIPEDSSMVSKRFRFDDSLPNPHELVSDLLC

[4] = system: SK-BR-3; test: Cytotoxicity in human SK-BR-3 cells assessed as reduction in cell viability incubated for 72 hrs by MTS assay; type: functional, cell-based; details: SK-BR-3, 72 h
[5] = molecular target: T3, Serine/threonine-protein kinase pim-3 (Homo sapiens, UniProt Q86V86); test: Inhibition of PIM3 (unknown origin) by [33P]-ATP filter binding kinase assay
[6] = system: A2058; test: Cytotoxicity in human A2058 cells assessed as reduction in cell viability incubated for 72 hrs by MTS assay; type: functional, cell-based; details: A2058, 72 h
[7] = molecular target: Serine/threonine-protein kinase pim-1 (Homo sapiens, UniProt P11309); test: Inhibition of PIM1 (unknown origin) by [33P]-ATP filter binding kinase assay
[8] = molecular target: T4, Aurora kinase B (Homo sapiens, UniProt Q96GD4); test: Inhibition of Aurora B (unknown origin) by [33P]-ATP filter binding kinase assay
[9] = molecular target: Serine/threonine-protein kinase SIK3 (Homo sapiens, UniProt Q9Y2K2); test: Inhibition of SIK3 (unknown origin) by [33P]-ATP filter binding kinase assay
[10] = molecular target: T2, Serine/threonine-protein kinase 17B; test: Inhibition of DRAK2 (unknown origin) expressed in HEK293 cells by NanoLuc-luciferase reporter based intracellular ATP competitiveness assay; type: cell-based
[11] = system: HT-29; test: Cytotoxicity in human HT-29 cells assessed as reduction in cell viability incubated for 72 hrs by MTS assay; type: functional, cell-based; details: HT-29, 72 h
[12] = system: MRC5; test: Cytotoxicity in human MRC5 cells assessed as reduction in cell viability incubated for 72 hrs by MTS assay; type: cell-based; details: MRC5, 72 h
[13] = system: MDA-MB-468; test: Cytotoxicity in human MDA-MB-468 cells assessed as reduction in cell viability incubated for 72 hrs by MTS assay; type: functional, cell-based; details: MDA-MB-468, 72 h
[14] = molecular target: Serine/threonine-protein kinase pim-2 (Homo sapiens, UniProt Q9P1W9); test: Inhibition of PIM2 (unknown origin) by [33P]-ATP filter binding kinase assay
[15] = system: MOLT-4; test: Cytotoxicity in human MOLT4 cells assessed as reduction in cell viability incubated for 72 hrs by MTS assay; type: functional, cell-based; details: MOLT-4, 72 h
[16] = molecular target: T5, Mitogen-activated protein kinase kinase kinase kinase 2 (Homo sapiens, UniProt Q12851); test: Inhibition of GCK (unknown origin) by [33P]-ATP filter binding kinase assay
T5 sequence (Q12851 whole entry): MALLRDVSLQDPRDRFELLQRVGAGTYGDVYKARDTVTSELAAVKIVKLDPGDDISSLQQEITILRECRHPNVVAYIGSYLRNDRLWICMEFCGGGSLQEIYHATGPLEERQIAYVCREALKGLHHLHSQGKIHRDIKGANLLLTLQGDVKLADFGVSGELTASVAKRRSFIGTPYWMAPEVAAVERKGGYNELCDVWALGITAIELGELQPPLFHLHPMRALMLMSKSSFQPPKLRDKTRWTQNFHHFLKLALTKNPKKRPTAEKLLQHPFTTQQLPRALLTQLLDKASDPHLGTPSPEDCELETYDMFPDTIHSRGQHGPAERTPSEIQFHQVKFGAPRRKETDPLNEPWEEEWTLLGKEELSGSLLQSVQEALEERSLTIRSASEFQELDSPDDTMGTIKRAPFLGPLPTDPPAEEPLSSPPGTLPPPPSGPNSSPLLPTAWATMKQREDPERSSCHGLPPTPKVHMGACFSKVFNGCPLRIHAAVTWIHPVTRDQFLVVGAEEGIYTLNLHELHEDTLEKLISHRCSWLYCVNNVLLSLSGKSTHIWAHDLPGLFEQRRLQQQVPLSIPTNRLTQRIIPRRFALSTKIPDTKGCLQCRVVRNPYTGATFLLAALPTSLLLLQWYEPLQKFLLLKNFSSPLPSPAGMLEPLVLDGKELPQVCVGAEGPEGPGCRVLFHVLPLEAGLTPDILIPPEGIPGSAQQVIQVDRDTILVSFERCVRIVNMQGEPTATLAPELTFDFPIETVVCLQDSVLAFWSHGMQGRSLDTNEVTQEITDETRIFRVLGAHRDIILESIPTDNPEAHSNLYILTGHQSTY

[17] = molecular target: Mitogen-activated protein kinase kinase kinase 11 (Homo sapiens, UniProt Q16584); test: Inhibition of MLK3 (unknown origin) by [33P]-ATP filter binding kinase assay
[18] = Intrinsic clearance in mouse liver microsomes at 3 uM measured up to 50 mins by LC-MS analysis; type: ADME, Microsome; details: read-out: CLH
[19] = molecular target: T3, Serine/threonine-protein kinase pim-3; test: Inhibition of PIM3 (unknown origin) assessed as residual enzyme activity at 1 uM by [33P]-ATP filter binding kinase assay relative to control
[20] = molecular target: T4, Aurora kinase B; test: Inhibition of Aurora B (unknown origin) assessed as residual enzyme activity at 50 uM by [33P]-ATP filter binding kinase assay relative to control

Serine/threonine-protein kinase pim-1, sequence (P11309 whole entry): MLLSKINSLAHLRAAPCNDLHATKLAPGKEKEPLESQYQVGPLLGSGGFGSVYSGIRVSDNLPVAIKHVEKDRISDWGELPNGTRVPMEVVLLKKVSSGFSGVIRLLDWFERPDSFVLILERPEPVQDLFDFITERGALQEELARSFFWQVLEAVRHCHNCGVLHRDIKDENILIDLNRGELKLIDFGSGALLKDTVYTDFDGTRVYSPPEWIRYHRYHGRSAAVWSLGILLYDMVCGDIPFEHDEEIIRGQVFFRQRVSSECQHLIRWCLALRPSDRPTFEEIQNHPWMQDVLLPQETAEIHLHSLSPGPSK
Serine/threonine-protein kinase SIK3, sequence (Q9Y2K2 whole entry): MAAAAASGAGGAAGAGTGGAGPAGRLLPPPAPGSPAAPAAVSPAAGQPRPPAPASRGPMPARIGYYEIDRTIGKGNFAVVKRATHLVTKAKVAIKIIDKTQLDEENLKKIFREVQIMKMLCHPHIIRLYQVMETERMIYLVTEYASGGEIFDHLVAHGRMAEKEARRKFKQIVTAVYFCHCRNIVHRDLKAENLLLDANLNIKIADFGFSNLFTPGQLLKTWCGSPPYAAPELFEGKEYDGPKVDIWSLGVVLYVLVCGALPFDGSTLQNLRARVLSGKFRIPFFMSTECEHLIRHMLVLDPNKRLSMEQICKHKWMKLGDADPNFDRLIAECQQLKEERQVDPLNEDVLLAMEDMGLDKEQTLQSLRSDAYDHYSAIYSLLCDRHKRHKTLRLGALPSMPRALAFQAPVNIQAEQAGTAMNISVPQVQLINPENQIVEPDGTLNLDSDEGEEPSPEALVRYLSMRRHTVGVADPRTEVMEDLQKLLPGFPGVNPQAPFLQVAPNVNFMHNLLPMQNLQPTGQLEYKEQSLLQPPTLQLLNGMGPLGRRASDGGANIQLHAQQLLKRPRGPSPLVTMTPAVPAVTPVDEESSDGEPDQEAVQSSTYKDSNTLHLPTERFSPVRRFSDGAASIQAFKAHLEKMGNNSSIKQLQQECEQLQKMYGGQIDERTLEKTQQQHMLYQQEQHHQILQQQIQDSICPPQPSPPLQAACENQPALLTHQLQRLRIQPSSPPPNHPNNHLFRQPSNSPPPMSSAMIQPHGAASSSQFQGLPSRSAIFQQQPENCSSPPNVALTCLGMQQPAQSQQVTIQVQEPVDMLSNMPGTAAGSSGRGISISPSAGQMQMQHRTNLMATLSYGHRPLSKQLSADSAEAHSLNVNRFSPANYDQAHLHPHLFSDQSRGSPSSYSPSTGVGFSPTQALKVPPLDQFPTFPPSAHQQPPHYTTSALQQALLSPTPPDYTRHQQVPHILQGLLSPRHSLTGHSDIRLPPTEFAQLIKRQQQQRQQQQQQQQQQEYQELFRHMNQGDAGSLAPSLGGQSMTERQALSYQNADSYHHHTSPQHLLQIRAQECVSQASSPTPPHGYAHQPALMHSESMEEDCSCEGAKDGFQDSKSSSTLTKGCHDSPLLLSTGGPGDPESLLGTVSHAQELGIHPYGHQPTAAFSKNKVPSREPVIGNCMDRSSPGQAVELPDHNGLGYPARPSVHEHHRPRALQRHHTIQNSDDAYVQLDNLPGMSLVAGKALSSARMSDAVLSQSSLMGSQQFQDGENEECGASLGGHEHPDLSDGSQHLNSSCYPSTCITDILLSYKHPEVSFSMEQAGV
Mitogen-activated protein kinase kinase kinase 11, sequence (Q16584 whole entry): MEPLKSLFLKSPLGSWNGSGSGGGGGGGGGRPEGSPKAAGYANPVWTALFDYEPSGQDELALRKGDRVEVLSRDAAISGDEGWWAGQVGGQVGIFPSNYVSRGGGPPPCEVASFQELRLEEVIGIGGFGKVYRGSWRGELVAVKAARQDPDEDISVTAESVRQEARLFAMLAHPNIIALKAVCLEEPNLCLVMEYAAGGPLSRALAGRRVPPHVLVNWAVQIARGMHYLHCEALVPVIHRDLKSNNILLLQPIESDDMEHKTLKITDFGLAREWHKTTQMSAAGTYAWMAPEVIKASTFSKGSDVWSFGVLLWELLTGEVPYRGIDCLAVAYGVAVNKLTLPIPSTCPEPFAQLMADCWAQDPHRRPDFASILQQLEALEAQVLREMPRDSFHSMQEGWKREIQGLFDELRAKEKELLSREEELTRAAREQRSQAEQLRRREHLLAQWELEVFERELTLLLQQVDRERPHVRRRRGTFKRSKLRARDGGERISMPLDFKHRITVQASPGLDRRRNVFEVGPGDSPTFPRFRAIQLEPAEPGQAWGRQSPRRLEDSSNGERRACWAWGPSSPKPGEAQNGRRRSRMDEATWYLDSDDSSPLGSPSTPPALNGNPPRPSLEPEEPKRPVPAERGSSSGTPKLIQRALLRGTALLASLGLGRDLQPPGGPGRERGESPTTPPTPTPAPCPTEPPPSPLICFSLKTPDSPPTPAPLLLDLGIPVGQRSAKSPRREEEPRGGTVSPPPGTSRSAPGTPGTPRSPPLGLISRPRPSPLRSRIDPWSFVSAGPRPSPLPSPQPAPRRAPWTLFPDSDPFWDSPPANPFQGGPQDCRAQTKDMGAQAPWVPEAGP
T4 sequence (Q96GD4 whole entry): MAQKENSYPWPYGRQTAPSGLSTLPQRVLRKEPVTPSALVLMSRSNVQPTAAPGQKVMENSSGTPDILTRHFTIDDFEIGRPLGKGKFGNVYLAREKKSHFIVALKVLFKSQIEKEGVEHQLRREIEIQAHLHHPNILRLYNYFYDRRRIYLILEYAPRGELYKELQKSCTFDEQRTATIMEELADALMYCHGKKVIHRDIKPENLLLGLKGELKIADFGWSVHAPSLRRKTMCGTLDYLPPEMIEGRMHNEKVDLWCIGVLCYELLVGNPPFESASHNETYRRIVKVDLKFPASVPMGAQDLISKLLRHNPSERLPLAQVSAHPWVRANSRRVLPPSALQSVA
Serine/threonine-protein kinase pim-2, sequence (Q9P1W9 whole entry): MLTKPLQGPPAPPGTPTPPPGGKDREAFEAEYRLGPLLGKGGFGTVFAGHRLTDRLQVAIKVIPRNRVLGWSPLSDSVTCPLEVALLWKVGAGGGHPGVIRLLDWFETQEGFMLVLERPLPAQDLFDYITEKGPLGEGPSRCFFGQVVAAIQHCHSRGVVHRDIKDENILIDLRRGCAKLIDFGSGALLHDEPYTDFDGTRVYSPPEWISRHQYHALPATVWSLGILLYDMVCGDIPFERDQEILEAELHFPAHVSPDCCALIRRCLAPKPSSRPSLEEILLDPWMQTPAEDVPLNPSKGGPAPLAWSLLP

| Compound | IC50 [1] | IC50 [2] | IC50 [3] | IC50 [4] | IC50 [5] | IC50 [6] | IC50 [7] | IC50 [8] | IC50 [9] | IC50 [10] | IC50 [11] | IC50 [12] | IC50 [13] | IC50 [14] | IC50 [15] | IC50 [16] | IC50 [17] | microsomal CLint at 3 µM [18] | Activity [19] | Activity [20] |
| --- | --- | --- | --- | --- | --- | --- | --- | --- | --- | --- | --- | --- | --- | --- | --- | --- | --- | --- | --- | --- |
| COc1cc(Br)cc2[nH]cc(-c3cnc(-c4ccc(Br)[nH]4)o3)c12 | > 10 µM | > 10 µM | > 10 µM | > 10 µM | > 10 µM | > 10 µM | > 10 µM | > 10 µM | > 10 µM | 3.3 µM | > 10 µM | > 10 µM | > 10 µM | > 10 µM | > 10 µM | > 10 µM | > 10 µM | – | – | – |
| COc1cc2c(-c3cnc(-c4ccc[nH]4)o3)c[nH]c2cc1Br | 8.5 µM | – | 9.8 µM | > 10 µM | 1.8 µM | > 10 µM | 0.2 µM | 0.8 µM | 1.2 µM | 0.5 µM | 7.1 µM | 7.1 µM | > 10 µM | 11 µM | 9.9 µM | 0.6 µM | 0.6 µM | 47 µL/min/mg | 7% | 6% |
| COc1cc(Br)cc2[nH]cc(-c3oc(-c4ccc[nH]4)nc3I)c12 | > 10 µM | > 10 µM | > 10 µM | > 10 µM | > 10 µM | > 10 µM | > 10 µM | > 10 µM | > 10 µM | > 10 µM | > 10 µM | > 10 µM | > 10 µM | > 10 µM | > 10 µM | > 10 µM | > 10 µM | – | – | – |
| COc1cc(Br)cc2[nH]cc(-c3cnc(-c4ccc[nH]4)o3)c12 | 3.9 µM | > 10 µM | > 10 µM | > 10 µM | 3.7 µM | > 10 µM | 0.9 µM | 0.9 µM | > 10 µM | 8.3 µM | > 10 µM | > 10 µM | > 10 µM | 22 µM | > 10 µM | 1.2 µM | 0.5 µM | – | 29% | – |
